This note sets out measurements from US12662452B2, “Solid state forms of lucerastat and process for preparation thereof” (ASSIA CHEMICAL INDUSTRIES LTD., priority 2019, dated 2026).

Series [1] can be described thus: Long term storage stability at 2-8° C. The series is classed as physicochemical. The note with it: storage at 2-8° C.
A short description of series [2]: Exposure of the solid form to 20-80% relative humidity for 7 days at room temperature. The note with it: exposed to 20-80% RH for 7 days at room temperature. It counts as physicochemical.

Take “Lucerastat: Salicylic acid [Lucerastat: Salicylic acid Form LC-2]”: in series [1], the long term stability result is listed as “at least 1 year”.

As for Lucerastat: L-Pyroglutamic acid, in series [2], the deliquescence entry is “does not deliquesce” and the polymorphic stability result is “polymorphically stable”. Also, the long term stability entry in series [1] is reported as “at least 1 year”.
